Literature values as cited in patent publication US9000165B2 (priority 2011, dated 2015).

Columns and labels:
[1] = biological target: T1, serotonin 5-HT1A receptors (Homo sapiens, UniProt P08908)
T1 sequence (P08908 1-422): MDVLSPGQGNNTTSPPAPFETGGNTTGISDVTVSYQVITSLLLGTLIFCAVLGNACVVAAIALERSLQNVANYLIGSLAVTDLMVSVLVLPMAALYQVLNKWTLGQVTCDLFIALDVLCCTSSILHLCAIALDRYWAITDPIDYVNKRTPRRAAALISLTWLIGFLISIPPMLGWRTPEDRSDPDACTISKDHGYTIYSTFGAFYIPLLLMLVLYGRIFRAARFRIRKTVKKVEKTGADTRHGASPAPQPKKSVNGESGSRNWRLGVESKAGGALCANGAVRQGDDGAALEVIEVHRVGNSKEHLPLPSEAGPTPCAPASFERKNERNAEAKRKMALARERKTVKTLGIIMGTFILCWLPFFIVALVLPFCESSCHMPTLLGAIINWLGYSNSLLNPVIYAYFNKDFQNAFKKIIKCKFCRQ

[2] = biological target: serotonin 5-HT2A receptors (Homo sapiens, UniProt P28223)
[3] = biological target: T2, serotonin 5-HT2C receptors (Homo sapiens, UniProt P28335)
T2 sequence (P28335 33-458): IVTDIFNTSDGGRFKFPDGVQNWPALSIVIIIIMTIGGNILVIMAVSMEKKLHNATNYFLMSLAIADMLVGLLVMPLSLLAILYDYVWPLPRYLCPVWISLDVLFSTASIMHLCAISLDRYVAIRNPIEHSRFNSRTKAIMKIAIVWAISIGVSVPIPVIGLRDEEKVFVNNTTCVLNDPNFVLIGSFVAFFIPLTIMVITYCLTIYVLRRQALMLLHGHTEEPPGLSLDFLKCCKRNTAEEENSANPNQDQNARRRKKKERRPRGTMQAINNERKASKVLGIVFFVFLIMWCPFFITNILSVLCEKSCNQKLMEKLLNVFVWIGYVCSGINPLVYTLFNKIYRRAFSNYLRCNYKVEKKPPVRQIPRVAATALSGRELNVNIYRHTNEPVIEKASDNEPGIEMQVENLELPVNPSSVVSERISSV

[4] = system: α1-adrenaline agonist receptors
[5] = biological target: histamine H1 receptors (Homo sapiens, UniProt P35367)
[6] = biological target: serotonin reuptake sites (Homo sapiens, UniProt P31645)
[7] = system: cholinergic muscarinic receptors
[8] = upon exposure to moisture converts into the hydrate form

Chain of histamine H1 receptors (P35367 whole entry): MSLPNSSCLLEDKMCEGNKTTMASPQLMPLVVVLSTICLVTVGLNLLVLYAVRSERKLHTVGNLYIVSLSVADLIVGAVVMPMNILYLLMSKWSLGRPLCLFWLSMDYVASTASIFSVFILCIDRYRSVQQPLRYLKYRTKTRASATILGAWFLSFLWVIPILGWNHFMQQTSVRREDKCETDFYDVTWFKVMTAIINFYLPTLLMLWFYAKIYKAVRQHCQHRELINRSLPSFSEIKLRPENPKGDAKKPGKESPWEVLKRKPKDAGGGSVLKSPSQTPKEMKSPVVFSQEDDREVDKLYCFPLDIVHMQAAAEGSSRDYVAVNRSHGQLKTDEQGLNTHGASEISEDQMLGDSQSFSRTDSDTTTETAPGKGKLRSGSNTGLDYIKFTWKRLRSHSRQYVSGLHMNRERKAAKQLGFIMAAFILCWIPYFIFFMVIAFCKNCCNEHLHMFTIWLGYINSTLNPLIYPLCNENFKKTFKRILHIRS
Chain of serotonin 5-HT2A receptors (P28223 whole entry): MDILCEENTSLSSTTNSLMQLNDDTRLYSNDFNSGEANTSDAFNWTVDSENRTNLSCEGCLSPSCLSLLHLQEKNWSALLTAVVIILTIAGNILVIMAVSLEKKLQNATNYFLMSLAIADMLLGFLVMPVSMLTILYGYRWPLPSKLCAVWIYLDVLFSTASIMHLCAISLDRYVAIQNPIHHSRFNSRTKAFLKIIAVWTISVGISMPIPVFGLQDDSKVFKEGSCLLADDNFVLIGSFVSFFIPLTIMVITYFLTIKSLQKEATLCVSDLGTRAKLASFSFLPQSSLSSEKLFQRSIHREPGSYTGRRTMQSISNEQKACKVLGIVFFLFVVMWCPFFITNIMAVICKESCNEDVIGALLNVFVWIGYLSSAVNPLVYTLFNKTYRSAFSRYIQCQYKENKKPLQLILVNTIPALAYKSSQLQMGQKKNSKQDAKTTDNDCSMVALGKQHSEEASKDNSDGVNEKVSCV
Chain of serotonin reuptake sites (P31645 whole entry): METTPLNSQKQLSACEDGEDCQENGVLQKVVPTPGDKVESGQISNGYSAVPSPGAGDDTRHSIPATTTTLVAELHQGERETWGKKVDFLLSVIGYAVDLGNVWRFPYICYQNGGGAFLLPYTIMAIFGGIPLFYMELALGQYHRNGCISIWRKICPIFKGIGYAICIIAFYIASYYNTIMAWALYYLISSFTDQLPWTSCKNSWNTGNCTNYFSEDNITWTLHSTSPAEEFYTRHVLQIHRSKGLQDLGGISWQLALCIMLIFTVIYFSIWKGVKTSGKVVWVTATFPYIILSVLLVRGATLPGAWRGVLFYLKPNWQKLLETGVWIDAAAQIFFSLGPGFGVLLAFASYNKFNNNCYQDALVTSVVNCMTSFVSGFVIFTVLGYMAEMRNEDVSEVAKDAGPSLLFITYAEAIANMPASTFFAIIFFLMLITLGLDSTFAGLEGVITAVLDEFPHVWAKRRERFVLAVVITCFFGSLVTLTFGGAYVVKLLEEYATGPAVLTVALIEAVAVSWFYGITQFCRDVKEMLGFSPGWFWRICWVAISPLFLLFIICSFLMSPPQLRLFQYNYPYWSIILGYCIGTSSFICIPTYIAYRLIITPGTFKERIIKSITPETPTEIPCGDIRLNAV

## O=C1CCc2ccc(OCCCCN3CCN(c4cccc(Cl)c4Cl)CC3)cc2N1 [Aripiprazole]
[1]
  affinity for serotonin 5-HT1A receptors: potent affinity
[2]
  affinity for serotonin 5-HT2A receptors: potent affinity
[3]
  affinity for serotonin 5-HT2C receptors: mild affinity
[4]
  affinity for α1-adrenaline agonist receptors: mild affinity
[5]
  affinity for histamine H1 receptors: mild affinity
[6]
  affinity for serotonin reuptake sites: mild affinity
[7]
  affinity for cholinergic muscarinic receptors: no detectable affinity

## O=C1CCc2ccc(OCCCCN3CCN(c4cccc(Cl)c4Cl)CC3)cc2N1 [anhydrous aripiprazole crystal form I, Aripiprazole]
[8]
  hygroscopic property: significant hygroscopic property
